Patent publication US12522614B2, “Topical phosphoinositide 3-kinase inhibitors” (VENTHERA, INC., priority 2019, dated 2026)

Columns and labels:
[1] = In vitro human skin permeation study of topical gel formulations (Franz diffusion cells); type: in vitro ADME; conditions: Study-1, Example 8 gel, human skin
Excerpt: The gel formulation of Example 8 was used as the donor phase to determine the permeation of Compound 1.002 through human skin and its effectiveness as a topical application. Three skin donors and three diffusion cells (for each donor) per formulation were used in the in vitro skin permeation experiments. Split thickness dermatomed (approximately at […] thickness) human cadaver skin, supplied by New York Firefighters Skin Bank, NY, was used to determine the permeation rate of the tested compound (i.e., the drug) in vitro. All in vitro skin permeation studies were conducted using the Vertical Diffusion Cells assembly with consoles (Model FDC-6), and heating controllers (Logan Instruments Inc. Somerset, NJ). Each assembly consisted of six vertical, jacketed (37° C.±0.5° C.) 12-mL Franz diffusion cells with magnetic stirrer and 1.767 cm^2 diffusion area.
Skin flux studies were run for a period of 48 hours. At predetermined intervals (2, 4, 8, 24 and 48 hours) after starting the experiment, the entire contents of the receiver compartment were collected for determining concentrations of the drug by HPLC. The receiver compartment was refilled with fresh receiver medium. The receiver medium was pH 7.4 phosphate buffer with 0.5 mg/ml of Oleath 20 with the saturation concentration of the drug in the receptor medium being 0.152 mg/ml. This solubility of the drug in the receiver medium was enough to ensure sink conditions throughout each collection interval.
Samples of the receptor phase were obtained at 2, 4, 8, 12, 24 and 48 h and concentrations of Compound 1.002 and 3-(4-morpholinothieno(3,2-d)pyrimidin-2-yl)phenol (metabolite of Compound 1.002, abbreviated as MTPP) were determined using a validated HPLC method. The metabolism of Compound 1.002 to MTPP takes place in the human skin by esterase enzymes.
HPLC method: Column—Gemini C-18 4.6×150 mm, 5 μm particle size; Mobile Phase—water:acetonitrile 25:75 containing 0.1% TFA; Flow Rate—1 mL/min; Detection—274 nm; Column Temperature—40° C.; and Run Time—10 min. The retention times for MTPP and Compound 1.002 were 3.9 and 7.2 minutes, respectively.
The skin flux of drugs and cumulative amount of drugs permeated (sum of MTPP and Compound 1.002) for a period of 48 hours were calculated and are shown in Table 3. FIG. 3 represents a plot of Cumulative amount permeated versus time.

[2] = Human skin permeation from liquid reservoir transdermal patch over 7 days; type: in vitro ADME; conditions: liquid reservoir patch with Table 11 gel
Protocol: Liquid reservoir transdermal patches of FIG. 6 were prepared and used for the study of delivery of Compound 1.002. The transdermal patches were used to deliver Compound 1.002 in vitro through human skin for 7 days from a single patch application. The following gel formulation having composition as shown in Table 11 was prepared according to Example 8 and incorporated into the reservoir patch system.
Patches using the gel formulation having compositions of Table 11 were prepared in accordance with the process shown in FIG. 7. The patch was 1.8 cm^2 in size containing 0.3 mL of the gel formulation. The backing layer of the patch was Scotchpak® 9723, which is a laminate of polyester and polyethylene commonly used in transdermal patches. The controlling membrane was SOLUPOR® 10P05A, which is a highly porous (up to 90% porous) Ultra High Molecular Weight Polyethylene membrane with controlled pore size. The pressure sensitive adhesive in contact with the human skin was […], which is a non-crosslinked acrylate copolymer with no functional groups.
Compound 1.002 was confirmed to metabolize to MTPP by estarases as it permeates through the human skin.

[3] = Accelerated stability study of topical gel formulations at 80° C.; type: physicochemical; conditions: gel formulation (Table 2 excipients), 80° C.
Protocol: Topical gel formulations were prepared using excipients as shown in Table 2 according to Example 8, in which Compounds 1.002, 1.012, and 1.006 were used as the active ingredient, respectively. These gel formulations were subjected to stability study at 80° C. for 10 days. Stability under the condition of at 80° C. for 10 days is expected to be approximately equivalent to the stability for three (3) years at room temperature. A relative purity of the tested compound after being exposed for 5 days and 10 days at 80° C. was determined by HPLC, as compared to its initial purity (at day 0).
The values shown in the table are percent hydrolysis of the respective compounds to the parent compound MTPP.
Topical gel formulations of Compound 1.002 were prepared using excipients as shown in Table 2 according to Example 8, in which the content of oleic acid varied at 1%, 2%, 5%, and 10%, respectively. These gel formulations were subjected to stability study at 80° C. for 10 days, which is expected to be approximately equivalent to the stability for three (3) years at room temperature. A purity of the tested compound on day 0, 5, 7, and 10 at 80° C. was determined by HPLC. The detected impurity of the tested compound appears to be the hydrolysis product, as MTPP. Table 17 represents stability data of Compound 1.002 in topical formulations having oleic acid at various contents.
Gel formulations of Example 17 were subjected to stability study at 80° C. for 10 days. Stability under the condition of at 80° C. for 10 days is expected to be approximately equivalent to the stability for three (3) years at room temperature. A relative purity of Compound 1.002 after being exposed for 5 days and 10 days at 80° C. was determined by HPLC, as compared to its initial purity (at day 0).

[4] = In vitro human skin permeation study of topical gel formulations (Franz diffusion cells); type: in vitro ADME
[5] = Study-1, Example 8 gel, human skin, Donor 1, 2 h
[6] = Study-1, Example 8 gel, human skin, Donor 1, 4 h
[7] = Study-1, Example 8 gel, human skin, Donor 1, 8 h
[8] = Study-1, Example 8 gel, human skin, Donor 1, 24 h
[9] = Study-1, Example 8 gel, human skin, Donor 1, 48 h
[10] = Study-1, Example 8 gel, human skin, Donor 2, 2 h
[11] = Study-1, Example 8 gel, human skin, Donor 2, 8 h
[12] = Study-1, Example 8 gel, human skin, Donor 2, 24 h
[13] = Study-1, Example 8 gel, human skin, Donor 2, 48 h
[14] = Study-1, Example 8 gel, human skin, Donor 3, 4 h
[15] = Study-1, Example 8 gel, human skin, Donor 3, 8 h
[16] = Study-1, Example 8 gel, human skin, Donor 3, 24 h
[17] = Study-1, Example 8 gel, human skin, Donor 3, 48 h
[18] = Study-2, gel saturated at 120 mg/mL, human skin, 2 h
[19] = Study-2, gel saturated at 120 mg/mL, human skin, 4 h
[20] = Study-2, gel saturated at 120 mg/mL, human skin, 8 h
[21] = Study-2, gel saturated at 120 mg/mL, human skin, 24 h
[22] = Study-2, gel saturated at 120 mg/mL, human skin, 48 h

SMILES: CC(=O)Oc1cccc(-c2nc(N3CCOCC3)c3sccc3n2)c1 [Compound 1.002, 3-(4-Morpholinothieno[3,2-d]pyrimidin-2-yl)phenyl Acetate]
- Hydrolysis of Cmpd. 1.002 to MTPP ([1]; Donor 2, 4 h): 100%
- Cumulative permeation, Cmpd. 1.002 ([1]; Donor 3, 2 h): 0.00 μg/cm^2
- Compound 1.002 metabolized to MTPP after permeating through the human skin [2]: approximately 85%
- Relative Purity ([3]; Day 0): 100%
- Relative Purity ([3]; Day 5): 96%
- Relative Purity ([3]; Day 10): 94%
- Effect of oleic acid amount on flux through human skin ([4]; Example 15, gels with 1%, 2%, 5% and 10% oleic acid, FIG. 13): increases as the increase of the amount of oleic acid
- Metabolism of Compound 1.002 to MTPP ([4]; Example 15, gels with 1%, 2%, 5% and 10% oleic acid, human skin): Majority of Compound 1.002 metabolized to MTPP
- Share of total permeated (MTPP+Compound 1.002) that was Compound 1.002 ([4]; Example 16, three formulations, 24 hour time point): about 10%
- Cumulative permeation, Cmpd. 1.002 [4, 5]: 0.00 μg/cm^2
- Hydrolysis of Cmpd. 1.002 to MTPP [4, 5]: 100%
- Cumulative permeation, Cmpd. 1.002 [4, 6]: 0.00 μg/cm^2
- Hydrolysis of Cmpd. 1.002 to MTPP [4, 6]: 100%
- Cumulative permeation, Cmpd. 1.002 [4, 7]: 0.00 μg/cm^2
- Hydrolysis of Cmpd. 1.002 to MTPP [4, 7]: 100%
- Cumulative permeation, Cmpd. 1.002 [4, 8]: 13.47 μg/cm^2
- Hydrolysis of Cmpd. 1.002 to MTPP [4, 8]: 82.9%
- Cumulative permeation, Cmpd. 1.002 [4, 9]: 85.01 μg/cm^2
- Hydrolysis of Cmpd. 1.002 to MTPP [4, 9]: 58.5%
- Cumulative permeation, Cmpd. 1.002 [4, 10]: 0.00 μg/cm^2
- Hydrolysis of Cmpd. 1.002 to MTPP [4, 10]: 100%
- Cumulative permeation, Cmpd. 1.002 ([4]; Study-1, Example 8 gel, human skin, Donor 2, 4 h): 0.00 μg/cm^2
- Cumulative permeation, Cmpd. 1.002 [4, 11]: 1.09 μg/cm^2
- Hydrolysis of Cmpd. 1.002 to MTPP [4, 11]: 87.0%
- Cumulative permeation, Cmpd. 1.002 [4, 12]: 15.44 μg/cm^2
- Hydrolysis of Cmpd. 1.002 to MTPP [4, 12]: 83.6%
- Cumulative permeation, Cmpd. 1.002 [4, 13]: 82.83 μg/cm^2
- Hydrolysis of Cmpd. 1.002 to MTPP [4, 13]: 59.6%
- Cumulative permeation, Cmpd. 1.002 [4, 14]: 0.00 μg/cm^2
- Hydrolysis of Cmpd. 1.002 to MTPP [4, 14]: 100%
- Cumulative permeation, Cmpd. 1.002 [4, 15]: 0.00 μg/cm^2
- Hydrolysis of Cmpd. 1.002 to MTPP [4, 15]: 100%
- Cumulative permeation, Cmpd. 1.002 [4, 16]: 5.18 μg/cm^2
- Hydrolysis of Cmpd. 1.002 to MTPP [4, 16]: 92.0%
- Cumulative permeation, Cmpd. 1.002 [4, 17]: 70.87 μg/cm^2
- Hydrolysis of Cmpd. 1.002 to MTPP [4, 17]: 65.5%
- Amount of permeated Compound 1.002 metabolized to MTPP ([4]; Study-1 and Study-2, human skin, first 24-hour period): 82%-100%
- Cumulative permeation, Cmpd. 1.002 [4, 18]: 0.00 μg/cm^2
- Hydrolysis of Cmpd. 1.002 to MTPP [4, 18]: 100%
- Cumulative permeation, Cmpd. 1.002 [4, 19]: 0.00 μg/cm^2
- Hydrolysis of Cmpd. 1.002 to MTPP [4, 19]: 100%
- Cumulative permeation, Cmpd. 1.002 [4, 20]: 0.00 μg/cm^2
- Hydrolysis of Cmpd. 1.002 to MTPP [4, 20]: 100%
- Cumulative permeation, Cmpd. 1.002 [4, 21]: 0.00 μg/cm^2
- Hydrolysis of Cmpd. 1.002 to MTPP [4, 21]: 100%
- Cumulative permeation, Cmpd. 1.002 [4, 22]: 78.10 μg/cm^2
- Hydrolysis of Cmpd. 1.002 to MTPP [4, 22]: 83.9%
- Permeation through human skin relative to MTPP ([4]; Study-3, saturated gel formulations, 48 hour period, FIG. 4): about 6 times
